Here are results for five compounds from patent US20170246235A1, “GREEN TEA COMPOSITIONS” (priority 2014, published 2017).

The conditions of data set [1]: meta-analysis of 97 studies, Manach et al. (2005); cited from earlier work.
Data set [2] has as its system α-amylase. The note with it: cited from earlier work; for inhibition of α-amylase: at a concentration of 20 μM.
The conditions of data set [3]: after oral green tea extract; cited from earlier work.
Data set [4] concerns P. falciparum. Kind of data set: Parasite growth measured by radiolabeled hypoxanthine uptake. It is filed as cell-based, Plasmodium falciparum. How it is done:
Growth was measured by hypoxanthine uptake using radiolabeled hypoxanthine. […] ([…]) indicates rep. […] Graphpad Prism 6 software was used to analyse the data using the equation for log(inhibitor) vs. normalized response (variable slope).
This example was carried out to determine the parasiticidal efficacy of Phytofare® green tea extract containing catechins. The extract was resuspended in water to give a stock concentration of 58 mg/ml. Parasite growth was measured by hypoxanthine uptake using radiolabeled hypoxanthine as described (Slavic, K. et al., Mol. Biochem. Parasitol. 168:113-116, 2009). […] Each experiment included five technical replicates, and a total of three biological replicates were carried out.
The assay was repeated to obtain the IC50 values for pure caffeine, and for Epigallocatechin Gallate (EGCG) which is present in the extract, obtained from a different source. The concentration ranges used were 352.44 μM to 0.69 μM for caffeine, and 371.01 μM to 0.73 μM for EGCG. These concentrations reflect the molar concentrations present at the highest concentration (μg/ml) of extract used.

For data set [5], the target named is T1, HIV-1 integrase (Human immunodeficiency virus type 1 group M subtype B, UniProt P04585).
T1 construct: Full-length recombinant HIV-1 integrase protein (200 nM, purified from bacteria); literature Express Biotech International; host or cells: bacteria
The note with it: cited from earlier work.

For data set [6], the system named is breast cancer cells. The note with it: cited from earlier work.
The test system of data set [7] is MMP2. The following applies: cited from earlier work.
Data set [8] concerns MMP9. The following applies: cited from earlier work.
For data set [9] the following is noted: cited from earlier work.

Like-named read-outs stand apart in the source and are kept apart here.

In the case of `Oc1cc(O)c2c(c1)O[C@H](c1ccc(O)c(O)c1)[C@H](O)C2` [epicatechin], the elimination half-life in data set [1] was 2.5 ± 0.4 h.
Consider `Oc1cc(O)c2c(c1)O[C@H](c1cc(O)c(O)c(O)c1)[C@H](O)C2` [EGC, epi-gallocatechin], for which the “inhibition of α-amylase” value in data set [2] was 13%. In addition, in [3], the “area-under-curve, aqueous humor” value was 2.035 ± 0.5317 µM·h and the “concentration in aqueous humor” value was 602.9 ± 116.7 nM. Further, the elimination half-life in data set [1] was 2.3 ± 0.2 h.
For the compound `Cn1c(=O)c2c(ncn2C)n(C)c1=O` [caffeine], the “inhibition by caffeine alone” value in data set [4] (even at 352.44 μM) is reported as “no inhibition”. For the same compound, the “IC50, rep. 1” value in data set [4] (independent IC50 assay rep. 1) was “no calculable IC50 values”. Also, the “IC50, rep. 2” value in data set [4] (independent IC50 assay rep. 2) is reported as “no calculable IC50 values”. Further, the “IC50, rep. 3” value in [4] (independent IC50 assay rep. 3) was “no calculable IC50 values”.
For the compound epigallocatechin-3-gallate [EGCG], the IC50 in data set [4] (± S.E.M., read-out: IC50, means of the three independent experiments) is 80.8 µM. Also, the “effect on Km of α-amylase” value in [2] (50 μM EGCG, p=0.1) is on record as “did not significantly affect”. Further, the “Vmax of α-amylase” value in data set [2] (50 μM EGCG, reduced from 323.3) was 206.1 product/min/mg protein. The “inhibition of α-amylase” value in [2] was 34%. The “IC50 for HIV-1 integrase” value in data set [5] is reported as “slightly higher than Raltegravir”. Moreover, the “inhibition of invasion by breast cancer cells” value in data set [6] (20 μg/ml in the media) is given as “about 26%”. The “inhibition of invasion by breast cancer cells” value in data set [6] (50 μg/ml in the media) is on record as around 100%. In data set [7] (20 ug/ml in the media), the “production of MMP2” value is recorded as “reduced”. Also, the “activity of MMP2” value in data set [7] (50 μg/ml and 100 ug/ml) is “completely inhibited”. In data set [8] (20 ug/ml in the media), the “production of MMP9” value is reported as “completely inhibited”. The “activity of MMP9” value in data set [8] (50 μg/ml and 100 ug/ml) is “completely inhibited”. For the same compound, the “cellular toxicity to the corneal epithelium” value in data set [9] (0.01% or 0.1% EGCG) is “No cellular toxicity”. Besides, in data set [9] (topical 0.1% EGCG), the “decrease in corneal fluorescein staining compared with the vehicle” value is 24.6%; the “decrease in corneal fluorescein staining compared with untreated controls” value is listed as 41.9%; the “decrease in number of CD11b+ cells, central cornea, compared with the vehicle” value is 26.1%; the “decrease in number of CD11b+ cells, peripheral cornea, compared with the vehicle” value was 23.3%. Besides, the elimination half-life in data set [1] was 3.5 ± 0.3 h.
For the compound `Oc1cc(O)c2c(c1)O[C@H](c1cc(O)c(O)c(O)c1)[C@@H](O)C2` [gallocatechin], in data set [3], the “area-under-curve, retina” value is reported as 207,000 pmol×h/g and the “highest concentration in the retina” value is 22729.4 ± 4229.4 pmol/g.
